Experimental data: patent publication US20230172966A1, “COMPOSITION FOR THE PREVENTION AND TREATMENT OF FOLATE AND/OR VITAMIN B12 DEFICIENCY CONDITIONS, PARTICULARLY HYPERHOMOCYSTEINEMIA” (INPHA RESEARCH S.R.L., priority 2020, published 2023)

What was measured:
[1] = Gastric Simulated Fluid (GSF) Test; type: physicochemical
Description: Gastric Simulated Fluid (GSF) Test.
For all the experiments, physiological gastric conditions were reproduced taking into account the volume of gastric fluid on an empty stomach (35-40 mL) (Mudie D M et al. Quantification of gastrointestinal liquid volumes and distribution following a 240 mL dose of water in the fasted state. Mol Pharm. 2014 Sep. 2; 11(9):3039-47) and the fact that in the stomach, the salt concentration is different from that of blood plasma (0.25% vs 0.9%) (Sandra Klein. The Use of Biorelevant Dissolution Media to Forecast the In Vivo Performance of a Drug. AAPS J. 2010 September; 12(3): 397-406).
The effect of the alkalizing agent on gastric pH was simulated in vitro by preparing a 0.2% saline solution of NaCl and bringing the pH of the solution to around 1.2-2 with 37% hydrochloric acid diluted 1:5.
GSF was prepared using the components in table 1, all tests were performed simulating body temperature (37° C.) and performed in triplicate.
400 ml of GSF was stirred with magnetic stirrer and settled at 37° C. and the three-point digital pH meter was applied. 40 mg of Folic Acid was added to this solution.
The bright orange dispersion was stirred for 5 minutes at 200 rpm and then the stirring was stopped.
The same experiment was repeated adding 30 mg of Zinc Oxide to the same amount of folic acid. […] Such a pH was maintained in the range 5.0-5.5 also by simulating physiological acid secretion, combining 2 ml of 0.1 M HCl every 15 minutes for a total of 60 minutes.

[2] = non-ionized carboxylic acid form, in contact with gastric fluid (pH 1.5-2.0 empty, 3.5-4.5 full stomach); cited from earlier work

Row | observation of folic acid solubility/precipitation in GSF ([1]; 40 mg Folic Acid alone in 400 ml GSF pH 1.2-2, 37° C., stirred 5 minutes at 200 rpm, observed after 10 minutes) | Compound | pH recorded in GSF after stirring ([1]; 30 mg Zinc Oxide + 40 mg folic acid in 400 ml GSF (initial pH 1.2-2), 37° C., after 5 minutes at 200 rpm) | pH maintained under simulated physiological acid secretion ([1]; 30 mg Zinc Oxide + 40 mg folic acid in 400 ml GSF, 2 ml of 0.1 M HCl every 15 minutes for a total of 60 minutes) | observation of folic acid dissolution in GSF with Zinc Oxide ([1]; 40 mg folic acid + 30 mg Zinc Oxide in 400 ml GSF, 37° C., stirred 5 minutes at 200 rpm) | water solubility [2]
1 |  | [O]=[Zn] [Zinc Oxide] | 5.2 | 5.0-5.5 |  | 
2 | complete precipitation | Nc1nc2ncc(CNc3ccc(C(=O)N[C@@H](CCC(=O)O)C(=O)O)cc3)nc2c(=O)[nH]1 [folic acid, pteroyl(mono)-glutamic acid] |  |  | translucent orange solution in the absence of precipitation | < 10 µg/mL
